Source: PubChem BioAssay AID743417 (Broad Institute, 2014)
Results filed as inconclusive are left out. The source made the active and inactive calls.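 Rule for the calls: active = compounds lowering the luciferase signal with a fitted half-maximal dose at most twice their top valid dose (cut at about 30 µM in these data); inconclusive = flat fits with moderate signal loss, or poor fits; inactive = the rest.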

Test system: Clone20 osteoblast Shn3 3'UTR firefly luciferase, 24 h
Test: Shn3 3'UTR reporter inhibitors, dose response, cell-based, Clone20 osteoblasts, luminescence, dry powder, set 2 (AID 743417)

Compound	AC50
COc1cnc(-c2ccccn2)nc1N(C)c1ccccc1	1830 nM
CN(C(=O)COc1ccccc1C(=O)NCCOc1ccccc1)c1ccccc1	1570 nM
CCCCn1c(CN(C)Cc2ccccc2)nc2c1c(=O)n(C)c(=O)n2C	2380 nM
COc1ccc(NS(=O)(=O)c2ccc(C(=O)N3CCCCCC3)cc2)cc1	4510 nM
COc1ccccc1CNc1nc(NCC2CC2)nc2ccsc12	4160 nM
O=C(Nc1ccncc1)c1ccc(Cl)c(S(=O)(=O)N2CCc3ccccc32)c1	3190 nM
O=S(=O)(c1ccccc1)N1CCN(c2cc(-c3ccccc3)nc3ncnn23)CC1	1120 nM
O=C(Cc1ccc(Cl)cc1Cl)Nc1ccncc1Cl	1630 nM
Cc1nc(SCC(=O)Nc2nc3ccccc3s2)c(C#N)c(C)c1C	< 260 nM
Cc1nc2scc(C)n2c(=O)c1S(=O)(=O)Nc1ccc(N2CCOCC2)c(Cl)c1	1670 nM
Cc1ccc(NC(=O)Cc2nn(C)c(=O)c3ccccc23)cc1F	730 nM
CC(=O)NC(c1ccc2ccccc2c1)c1ccc2cccnc2c1O (centres undefined)	422 nM
COCCn1c(CN2CCN(c3cccc(Cl)c3)CC2)nc2c1c(=O)n(C)c(=O)n2C	10700 nM
COc1cc2cc(C(=O)N3CC(COS(C)(=O)=O)c4ccc(O)cc43)[nH]c2c(OC)c1OC (centres undefined)	< 260 nM
CC(C)c1ccc(Oc2cccc3c2S(=O)(=O)N(C2CCCC2)CC(COCc2ccccc2)O3)cc1 (centres undefined)	15500 nM
Cc1ccccc1C(=O)N1CCN(c2ccc(NC(=O)c3ccc([N+](=O)[O-])o3)cc2)CC1	864 nM
CCCC(=O)NC(c1ccccc1)c1ccc2cccnc2c1O (centres undefined)	1990 nM
Cc1ccc(NC(=O)CN(C)CC(=O)Nc2cccc(F)c2)cc1[N+](=O)[O-]	570 nM
COc1cccc(CNc2ncnc3cc(Cl)ccc23)c1	3730 nM
Cc1ccc(S(=O)(=O)c2ncccc2[N+](=O)[O-])cc1	1910 nM
Cc1ccc(S(=O)(=O)CCC(=O)OCC(=O)Nc2cc(S(=O)(=O)N3CCOCC3)ccc2C)cc1	17800 nM
COc1cccc(C(c2nnnn2-c2ccc3c(c2)OCCO3)N2CCC(n3c(=O)[nH]c4ccccc43)CC2)c1OC (centres undefined)	3740 nM
O=C1OC[C@H](Cc2ccc3c(c2)OCO3)/C1=C\c1ccc2c(c1)OCO2	2660 nM
Cc1ccc(-c2nn(C(C)(C)C)c3ncnc(N)c23)cc1	5890 nM
CCCCOCCCNc1ncnc2c1[nH]c1ccccc12	1050 nM

Compound	AC50
N=c1n(Cc2ccc(Cl)cc2)c2ccccc2n1CC(O)COc1ccccc1 (centres undefined)	2340 nM
C=CCSc1nc2ccccc2n1C(=O)/C=C/c1ccc(OC)c(OC)c1	1310 nM
COCCNc1nc(NCc2ccc(C(C)C)cc2)c2sccc2n1	3950 nM
Cc1ccc(Nc2c(-c3ccccn3)nc3cc(C)ccn23)cc1	1360 nM
CCC(OC(=O)c1ccc(S(C)(=O)=O)c([N+](=O)[O-])c1)C(=O)NC1C2CC3CC(C2)CC1C3 (centres undefined)	1660 nM
COc1ccc(-n2c(C)cc(C(=O)CSc3nnc(-c4cccs4)o3)c2C)cc1	5030 nM
Cc1ccccc1C(=O)NC(=S)Nc1ccc(N2CCN(C(=O)c3ccccc3)CC2)cc1	1880 nM
CC(=O)N(CCc1ccccc1)c1ccc2c(c1)C1CC2CCN1C(=O)OCc1ccccc1 (centres undefined)	14400 nM
CCc1ccc(Nc2n[n+](-c3ccccc3)c(-c3c(Cl)cccc3Cl)s2)cc1	5400 nM
CN(c1ccccc1)S(=O)(=O)c1cccc(NC(=O)CSc2nncs2)c1	1440 nM
CCN(CC)C(=O)[C@H]1C[C@H](CC(=O)NC/C=C(\C)CCC=C(C)C)C(=O)N2CCc3c([nH]c4cc(CCC(=O)N(C)C)ccc34)[C@]12C	1370 nM
CN(Cc1ccc(Cl)c(Cl)c1)C(=O)c1cccc(S(=O)(=O)N2CCN(Cc3ccccc3)CC2)c1	3470 nM
COc1ccc(CCNC(=O)CCC(=O)N2CCOc3ccc(Cl)cc32)cc1OC	> 70000 nM (inactive)
COc1ccccc1C(NC(C)=O)c1cc(Cl)c2cccnc2c1O (centres undefined)	2560 nM
CC1=C(CO)C(=O)OC([C@@H](C)C2CC[C@H]3C4C[C@H]5O[C@]56[C@@H](O)C=CC(=O)[C@]6(C)C4CC[C@]23C)C1 (some centres undefined)	674 nM
CCOC(=O)N1CCN(C(=O)c2ccc3c(c2)N(Cc2ccc(C)cc2)CCS3)CC1	6000 nM
CCCC(=O)NC(c1cccc([N+](=O)[O-])c1)c1ccc2cccnc2c1O (centres undefined)	1750 nM
CCOC(=O)/C=C/C(=O)OCC(=O)NC(c1ccccc1)c1ccccc1	5140 nM
C[C@H](NC(=O)c1ncn2c1c(=O)[nH]c1ccc(Br)cc12)c1ccccc1	8760 nM
O=C1S/C(=C\c2ccc(N3CCOCC3)o2)C(=O)N1Cc1c(F)cccc1Cl	6720 nM
COc1cc(NC(=O)c2cccc3c(-c4cccnc4)coc23)cc(OC)c1OC	978 nM
CC(=O)Nc1cccc(NC(=O)CSc2ncc(-c3ccc(Cl)cc3)n2Cc2ccco2)c1	4950 nM
COc1ccc(-n2nc3c(N4CCC(C(=O)NCC(C)c5ccccc5)CC4)nnc(C)c3c2C)cc1 (centres undefined)	3250 nM
C[C@]12CC[C@H](O)CC1=CCC1C2CC[C@@]2(C)C1CCC21OCCO1 (some centres undefined)	27300 nM
